Reference: PMC3626250, “Effects of Borneol on Pharmacokinetics and Tissue Distribution of Notoginsenoside R1 and Ginsenosides Rg1 and Re in Panax notoginseng in Rabbits” (Journal of Analytical Methods in Chemistry, 2013)

Columns and labels:
Caco-2 cells = test: MTT cytotoxicity assay toward Caco-2 cells; format: cell-based; settings: chosen for transport study
Procedure: The Caco-2 cells were cultured in Dulbecco's modified Eagle's medium (DMEM) supplemented with 20% foetal bovine serum, 1% nonessential amino acids and penicillin-streptomycin, at 37°C in an atmosphere with a relative humidity of 95% and a CO2 flow of 5%. Medium was replaced every 2-3 days. When the cell monolayer reached 80% confluence, the cells were detached with a solution of 0.02% EDTA and 0.25% trypsin. The vinblastine-selected Caco-2 cells were cultivated in the presence of 10 nM vinblastine to induce P-glycoprotein (P-gp) expression. The culture medium was changed to a fresh medium without vinblastine 24 h before experiments, and the cells were used between passages 25 and 46. Prior to the transport study, cytotoxicity of NGR1, GRg1, GRe, and Borneol toward Caco-2 cells was determined using MTT assays. Noncytotoxic concentrations of 500 μM NGR1, GRg1, GRe, and 200 μM Borneol (dissolved in DMSO) were chosen for transport study.

[1] = Tissue distribution study in rabbits after oral Panax notoginseng extract with or without Borneol; format: in vivo, New Zealand rabbits
Procedure: Frozen plasma and tissue samples were thawed in a water bath at 37°C and were then vortexed followed by centrifuging at 5000 r·min^−1 for 5 min. An aliquot of 1.0 mL of the supernatant from each sample was loaded onto C18 Bond Elute Solid phase extraction (SPE) cartridges (1000 mg, 1 cc reservoir, Varian, Harbor City, CA, USA) pretreated with 2.0 mL hexane, isopropanol, methanol, and water, sequentially. The SPE cartridges were then washed with 1.0 mL water, 20% methanol/water solution, 40% methanol/water solution, and 60% methanol/water solution, sequentially. Finally, analytes were eluted twice with 1.0 mL of 70% methanol/water solution. The eluant was evaporated to dryness under nitrogen. The residues were then reconstituted in 1.0 mL mobile phase. An aliquot of 10 μL was injected into the LC-MS system.
One group of rabbits (n = 18) was orally administered a dose of 3.0 mL·kg^−1 Panax notoginseng extract, while another group of rabbits (n = 18) was orally given 3.0 mL·kg^−1 Panax notoginseng extract combined with Borneol. At 0.5, 1, and 3 h after administration, blood samples were collected from the central ear artery of six rabbits from each group, and the heart, liver, lung, kidney, and brain were immediately removed after animals were sacrificed by decapitation. An accurately weighed amount of tissue (1 g) was collected to be rinsed, dried, minced, and homogenized (400 r·min^−1) in normal saline (1.5 mL). All of the samples were stored at −70°C and were processed prior to analysis with the proposed method as described in Section 2.6.

[2] = 0.5 h, oral Panax notoginseng with Borneol
[3] = 1.0 h, oral Panax notoginseng with Borneol
[4] = 3.0 h, oral Panax notoginseng with Borneol
[5] = Borneol combined with Panax notoginseng, peak levels at 1.0 h

CC(C)=CCC[C@](C)(O[C@@H]1O[C@H](CO)[C@@H](O)[C@H](O)[C@H]1O)[C@H]1CC[C@]2(C)[C@@H]1[C@H](O)C[C@@H]1[C@@]3(C)CC[C@H](O)C(C)(C)[C@@H]3[C@@H](O[C@@H]3O[C@H](CO)[C@@H](O)[C@H](O)[C@H]3O[C@@H]3OC[C@@H](O)[C@H](O)[C@H]3O)C[C@]12C [NGR1, notoginsenoside R1]
Noncytotoxic concentration (Caco-2 cells): 500 µM | Concentration in brain ([1]; 0.5 h, oral Panax notoginseng): 0.65 ± 0.24 µg/g | Concentration in heart ([1]; 0.5 h, oral Panax notoginseng): 3.90 ± 0.53 µg/g | Concentration in kidney ([1]; 0.5 h, oral Panax notoginseng): 2.85 ± 0.45 µg/g | Concentration in liver ([1]; 0.5 h, oral Panax notoginseng): 1.38 ± 0.54 µg/g | Concentration in lung ([1]; 0.5 h, oral Panax notoginseng): 1.77 ± 0.46 µg/g | Concentration in plasma ([1]; 0.5 h, oral Panax notoginseng): 1670 ± 50 ng/mL | Concentration in brain [1, 2]: 4.02 ± 0.46 µg/g | Concentration in heart [1, 2]: 4.68 ± 0.21 µg/g | Concentration in kidney [1, 2]: 3.98 ± 0.12 µg/g | Concentration in liver [1, 2]: 8.24 ± 0.42 µg/g | Concentration in lung [1, 2]: 5.79 ± 0.29 µg/g | Concentration in plasma [1, 2]: 1620 ± 70 ng/mL | Concentration in brain ([1]; 1.0 h, oral Panax notoginseng): 0.81 ± 0.26 µg/g | Concentration in heart ([1]; 1.0 h, oral Panax notoginseng): 4.26 ± 0.27 µg/g | Concentration in kidney ([1]; 1.0 h, oral Panax notoginseng): 2.74 ± 0.33 µg/g | Concentration in liver ([1]; 1.0 h, oral Panax notoginseng): 1.66 ± 0.28 µg/g | Concentration in lung ([1]; 1.0 h, oral Panax notoginseng): 1.82 ± 0.20 µg/g | Concentration in plasma ([1]; 1.0 h, oral Panax notoginseng): 1290 ± 200 ng/mL | Concentration in brain [1, 3]: 5.58 ± 0.68 µg/g | Concentration in heart [1, 3]: 5.55 ± 0.31 µg/g | Concentration in kidney [1, 3]: 3.38 ± 0.34 µg/g | Concentration in liver [1, 3]: 9.29 ± 0.72 µg/g | Concentration in lung [1, 3]: 9.96 ± 0.66 µg/g | Concentration in plasma [1, 3]: 1460 ± 50 ng/mL | Concentration in brain ([1]; 3.0 h, oral Panax notoginseng): 0.48 ± 0.14 µg/g | Concentration in heart ([1]; 3.0 h, oral Panax notoginseng): 3.31 ± 0.32 µg/g | Concentration in kidney ([1]; 3.0 h, oral Panax notoginseng): 1.94 ± 0.24 µg/g | Concentration in liver ([1]; 3.0 h, oral Panax notoginseng): 0.89 ± 0.12 µg/g | Concentration in lung ([1]; 3.0 h, oral Panax notoginseng): 1.51 ± 0.16 µg/g | Concentration in plasma ([1]; 3.0 h, oral Panax notoginseng): 160 ± 60 ng/mL | Concentration in brain [1, 4]: 3.69 ± 0.84 µg/g | Concentration in heart [1, 4]: 4.59 ± 0.52 µg/g | Concentration in kidney [1, 4]: 2.27 ± 0.28 µg/g | Concentration in liver [1, 4]: 6.87 ± 0.61 µg/g | Concentration in lung [1, 4]: 4.56 ± 0.75 µg/g | Concentration in plasma [1, 4]: 490 ± 20 ng/mL | level in kidney, fold higher than the plasma concentrations ([1]; Borneol combined with Panax notoginseng, at 1.0 h): 2.3 fold | level in brain, fold higher than the plasma concentrations [1, 5]: 3.82 fold | level in liver, fold higher than the plasma concentrations [1, 5]: 6.36 fold | level in lung, fold higher than the plasma concentrations [1, 5]: 6.82 fold
